From PMC5218480 (PLoS ONE, 2017)

Tested on: MV-4-11 cells
Test: Gene expression microarray analysis (Affymetrix PrimeView) and GSEA
Format: cell-based, human
Parameters: RFU PODN (11730768_x_at) / Fold change /veh PODN (11730768_x_at) / RFU LINC00158 (11744669_a_at) / Fold change /veh LINC00158 (11744669_a_at) / RFU DUSP10 (11751237_a_at) / Fold change /veh DUSP10 (11751237_a_at) / RFU ID3 (11757404_x_at) / Fold change /veh ID3 (11757404_x_at) / RFU PLEKHG5 (11737974_s_at) / Fold change /veh PLEKHG5 (11737974_s_at) / RFU LRRC4B (11730491_at) / Fold change /veh LRRC4B (11730491_at) / RFU GIMAP4 (11747438_a_at) / Fold change /veh GIMAP4 (11747438_a_at) / RFU KRT8 (11758183_x_at) / Fold change /veh KRT8 (11758183_x_at) / RFU CNN1 (11734310_a_at) / Fold change /veh CNN1 (11734310_a_at) / RFU VPS37D (11726825_at) / Fold change /veh VPS37D (11726825_at) / RFU C10orf10 (11716522_x_at) / Fold change /veh C10orf10 (11716522_x_at) / RFU KIR2DL2 /// KIR2DL4 /// KIR2DL5A /// KIR2DL5B /// KIR2DS1 /// KIR2DS2 /// KIR2DS3 /// KIR2DS4 /// KIR3DL3 /// KIR3DL3 /// KIR3DS1 (11738374_at) / Fold change /veh KIR2DL2 /// KIR2DL4 /// KIR2DL5A /// KIR2DL5B /// KIR2DS1 /// KIR2DS2 /// KIR2DS3 /// KIR2DS4 /// KIR3DL3 /// KIR3DL3 /// KIR3DS1 (11738374_at) / RFU C1QL1 (11718748_at) / Fold change /veh C1QL1 (11718748_at) / RFU TMPRSS4 (11747572_a_at) / Fold change /veh TMPRSS4 (11747572_a_at) / RFU HAMP (11756126_x_at) / Fold change /veh HAMP (11756126_x_at) / RFU RNFT2 (11725882_a_at) / Fold change /veh RNFT2 (11725882_a_at) / RFU NR4A2 (11747474_a_at) / Fold change /veh NR4A2 (11747474_a_at) / RFU ABCC12 (11746883_a_at) / Fold change /veh ABCC12 (11746883_a_at) / RFU TMEM136 (11760407_x_at) / Fold change /veh TMEM136 (11760407_x_at) / RFU CLDN22 /// WWC2 (11732394_at) / Fold change /veh CLDN22 /// WWC2 (11732394_at) / RFU HLA-DPB1 (11760878_x_at) / Fold change /veh HLA-DPB1 (11760878_x_at) / RFU SPINT1 (11716480_a_at) / Fold change /veh SPINT1 (11716480_a_at) / RFU GAP43 (11754022_s_at) / Fold change /veh GAP43 (11754022_s_at) / RFU A4GNT (11735810_at) / Fold change /veh A4GNT (11735810_at) / RFU PRB3 (11715151_x_at) / Fold change /veh PRB3 (11715151_x_at) / RFU TUBB4B (11761932_at) / Fold change /veh TUBB4B (11761932_at) / RFU CAPN14 (11732068_a_at) / Fold change /veh CAPN14 (11732068_a_at) / RFU TMCC2 (11721928_a_at) / Fold change /veh TMCC2 (11721928_a_at) / RFU IRGQ (11745062_a_at) / Fold change /veh IRGQ (11745062_a_at) / RFU FAM174B (11720279_a_at) / Fold change /veh FAM174B (11720279_a_at) / RFU TMPRSS4 (11748680_a_at) / Fold change /veh TMPRSS4 (11748680_a_at) / RFU FAM212B (11763350_a_at) / Fold change /veh FAM212B (11763350_a_at) / RFU PLEKHG5 (11743358_a_at) / Fold change /veh PLEKHG5 (11743358_a_at) / RFU ZSCAN30 (11745921_a_at) / Fold change /veh ZSCAN30 (11745921_a_at) / RFU CMKLR1 (11741424_a_at) / Fold change /veh CMKLR1 (11741424_a_at) / RFU LOC101060620 /// MAPK8IP1 (11723275_at) / Fold change /veh LOC101060620 /// MAPK8IP1 (11723275_at) / RFU SPTSSB (11747773_x_at) / Fold change /veh SPTSSB (11747773_x_at) / RFU PRSS12 (11739890_at) / Fold change /veh PRSS12 (11739890_at) / RFU BIN1 (11741810_x_at) / Fold change /veh BIN1 (11741810_x_at) / RFU WNT11 (11732464_a_at) / Fold change /veh WNT11 (11732464_a_at) / RFU C10orf10 (11716521_a_at) / Fold change /veh C10orf10 (11716521_a_at) / RFU C5orf56 (11738089_at) / Fold change /veh C5orf56 (11738089_at) / RFU CYB561 (11721691_x_at) / Fold change /veh CYB561 (11721691_x_at) / RFU ANKRD19P (11752326_a_at) / Fold change /veh ANKRD19P (11752326_a_at) / RFU OR2T12 /// OR2T33 /// OR2T8 (11738714_s_at) / Fold change /veh OR2T12 /// OR2T33 /// OR2T8 (11738714_s_at) / RFU VCAN (11748164_a_at) / Fold change /veh VCAN (11748164_a_at) / RFU JSRP1 (11732532_at) / Fold change /veh JSRP1 (11732532_at) / RFU KRTAP10-11 (11738290_x_at) / Fold change /veh KRTAP10-11 (11738290_x_at) / RFU MYO3A (11730013_a_at) / Fold change /veh MYO3A (11730013_a_at) / RFU EBF3 (11725865_a_at) / Fold change /veh EBF3 (11725865_a_at) / RFU CAMK2N1 (11719241_x_at) / Fold change /veh CAMK2N1 (11719241_x_at) / RFU C5orf56 (11738088_a_at) / Fold change /veh C5orf56 (11738088_a_at) / RFU OLFML3 (11715873_a_at) / Fold change /veh OLFML3 (11715873_a_at) / RFU LOC100653217 /// NTM (11731650_a_at) / Fold change /veh LOC100653217 /// NTM (11731650_a_at) / RFU MAPK11 (11762145_a_at) / Fold change /veh MAPK11 (11762145_a_at) / RFU FIZ1 (11724087_x_at) / Fold change /veh FIZ1 (11724087_x_at) / RFU OASL (11726364_x_at) / Fold change /veh OASL (11726364_x_at) / RFU SOX15 (11748057_x_at) / Fold change /veh SOX15 (11748057_x_at) / RFU CD79A (11719716_a_at) / Fold change /veh CD79A (11719716_a_at) / RFU HIST1H1D (11736915_at) / Fold change /veh HIST1H1D (11736915_at) / RFU CASKIN2 (11723855_a_at) / Fold change /veh CASKIN2 (11723855_a_at) / RFU LOC730098 (11760151_x_at) / Fold change /veh LOC730098 (11760151_x_at) / RFU OR4N2 (11742367_at) / Fold change /veh OR4N2 (11742367_at) / RFU PRRT2 (11749266_a_at) / Fold change /veh PRRT2 (11749266_a_at) / RFU SNX32 (11753110_a_at) / Fold change /veh SNX32 (11753110_a_at) / RFU CDHR5 (11726645_a_at) / Fold change /veh CDHR5 (11726645_a_at) / RFU RCAN1 (11760418_a_at) / Fold change /veh RCAN1 (11760418_a_at) / RFU FAM167A (11723789_a_at) / Fold change /veh FAM167A (11723789_a_at) / RFU FAM26E (11764081_at) / Fold change /veh FAM26E (11764081_at) / RFU ISYNA1 (11749810_s_at) / Fold change /veh ISYNA1 (11749810_s_at) / RFU ACY1 (11761880_at) / Fold change /veh ACY1 (11761880_at) / RFU 11764098_at / Fold change /veh 11764098_at / RFU SAMD14 (11745864_x_at) / Fold change /veh SAMD14 (11745864_x_at) / RFU NPB (11741838_a_at) / Fold change /veh NPB (11741838_a_at) / RFU TMPRSS6 (11731388_a_at) / Fold change /veh TMPRSS6 (11731388_a_at) / RFU KRTAP10-2 (11738614_at) / Fold change /veh KRTAP10-2 (11738614_at) / RFU ARHGAP8 /// PRR5-ARHGAP8 (11727945_x_at) / Fold change /veh ARHGAP8 /// PRR5-ARHGAP8 (11727945_x_at) / RFU KRTAP5-7 /// NADSYN1 (11734609_at) / Fold change /veh KRTAP5-7 /// NADSYN1 (11734609_at) / RFU RASL12 (11751679_a_at) / Fold change /veh RASL12 (11751679_a_at) / RFU CDKN2B (11736163_a_at) / Fold change /veh CDKN2B (11736163_a_at) / RFU PRF1 (11729649_at) / Fold change /veh PRF1 (11729649_at) / RFU, ZNF638 /// ZNF638-IT1 / Fold change vs veh, ZNF638 /// ZNF638-IT1 / RFU, PANK3 / Fold change vs veh, PANK3 / RFU, SH3YL1 / Fold change vs veh, SH3YL1 / RFU, ZEB2 / Fold change vs veh, ZEB2 / RFU, NRIP1 / Fold change vs veh, NRIP1 / RFU, PTTG1IP / Fold change vs veh, PTTG1IP / RFU, CAPN2 / Fold change vs veh, CAPN2 / RFU, MED14 / Fold change vs veh, MED14 / RFU, SNORA58 / Fold change vs veh, SNORA58 / RFU, C1orf63 / Fold change vs veh, C1orf63 / RFU, LRRFIP1 / Fold change vs veh, LRRFIP1 / RFU, NDUFAF7 / Fold change vs veh, NDUFAF7 / RFU, SLC12A2 / Fold change vs veh, SLC12A2 / RFU, IBTK / Fold change vs veh, IBTK / RFU, ESF1 / Fold change vs veh, ESF1 / Fold change vs veh, TMEM50B / RFU, TAOK1 / Fold change vs veh, TAOK1 / RFU, ACBD3 / Fold change vs veh, ACBD3 / RFU, TMA16 / Fold change vs veh, TMA16 / RFU, RWDD3 / Fold change vs veh, RWDD3 / RFU, BCAT1 / Fold change vs veh, BCAT1 / RFU, EDEM3 / Fold change vs veh, EDEM3 / RFU, TMEM33 / Fold change vs veh, TMEM33 / RFU, WDR75 / Fold change vs veh, WDR75 / RFU, AHCTF1 / Fold change vs veh, AHCTF1 / RFU, TFRC / Fold change vs veh, TFRC / RFU, ZDHHC17 / Fold change vs veh, ZDHHC17 / RFU, NOM1 / Fold change vs veh, NOM1 / RFU, ARL8B / Fold change vs veh, ARL8B / RFU, ZBTB11 / Fold change vs veh, ZBTB11 / RFU, TAMM41 / Fold change vs veh, TAMM41 / RFU, KIAA1704 /// LOC100996395 / Fold change vs veh, KIAA1704 /// LOC100996395 / RFU, ING1 / Fold change vs veh, ING1 / RFU, TRMT61B / Fold change vs veh, TRMT61B / RFU, FUBP3 / Fold change vs veh, FUBP3 / RFU, TP53 / Fold change vs veh, TP53 / RFU, TNKS2 / Fold change vs veh, TNKS2 / RFU, ZFP14 / Fold change vs veh, ZFP14 / RFU, ACTR2 / Fold change vs veh, ACTR2 / RFU, PPP3R1 / Fold change vs veh, PPP3R1 / RFU, PIK3R1 / Fold change vs veh, PIK3R1 / RFU, HNRNPA1 / Fold change vs veh, HNRNPA1 / RFU, RNF170 / Fold change vs veh, RNF170 / RFU, ZNF28 / Fold change vs veh, ZNF28 / RFU, RNGTT / Fold change vs veh, RNGTT / RFU, OGT / Fold change vs veh, OGT / RFU, BRD1 / Fold change vs veh, BRD1 / RFU, MARS / Fold change vs veh, MARS / RFU, ZNF655 / Fold change vs veh, ZNF655 / RFU, FAHD1 / Fold change vs veh, FAHD1 / RFU, BDP1 / Fold change vs veh, BDP1 / RFU, LRRCC1 / Fold change vs veh, LRRCC1 / RFU, ARID1A / Fold change vs veh, ARID1A / RFU, ZNF146 / Fold change vs veh, ZNF146 / RFU, ZNF330 / Fold change vs veh, ZNF330 / RFU, GPN3 / Fold change vs veh, GPN3 / RFU, C9orf123 / Fold change vs veh, C9orf123 / RFU, N4BP2L2 / Fold change vs veh, N4BP2L2 / RFU, ARFIP1 / Fold change vs veh, ARFIP1 / RFU, FAM179B / Fold change vs veh, FAM179B / RFU, BCL10 / Fold change vs veh, BCL10 / RFU, UHRF1BP1L / Fold change vs veh, UHRF1BP1L / RFU, BET1 / Fold change vs veh, BET1 / RFU, CNOT2 / Fold change vs veh, CNOT2 / RFU, ZNF268 / Fold change vs veh, ZNF268 / Fold change vs veh, ZNF507 / RFU, DGCR2 / Fold change vs veh, DGCR2 / RFU, WDSUB1 / Fold change vs veh, WDSUB1 / Fold change vs veh, HSP90B1 /// MIR3652 / RFU, ADSS / Fold change vs veh, ADSS / RFU, GK / Fold change vs veh, GK / RFU, ZNF148 / Fold change vs veh, ZNF148 / RFU, TAF9 / Fold change vs veh, TAF9 / RFU, SLC1A5 / Fold change vs veh, SLC1A5 / RFU, SLMO2 / Fold change vs veh, SLMO2 / RFU, ABCC4 / Fold change vs veh, ABCC4 / RFU, LOC101060439 /// RAP1B / Fold change vs veh, LOC101060439 /// RAP1B / RFU, RFX7 / Fold change vs veh, RFX7 / RFU, GTPBP10 / Fold change vs veh, GTPBP10 / RFU, CNEP1R1 / Fold change vs veh, CNEP1R1 / RFU, BIVM-ERCC5 /// ERCC5 / Fold change vs veh, BIVM-ERCC5 /// ERCC5 / RFU, ILF3 / Fold change vs veh, ILF3 / RFU 11762660_at / Fold change /veh 11762660_at / RFU VCAN (11757783_s_at) / Fold change /veh VCAN (11757783_s_at) / RFU DDX43 (11728927_at) / Fold change /veh DDX43 (11728927_at) / RFU KRT8 (11758188_x_at) / Fold change /veh KRT8 (11758188_x_at) / RFU NKD1 (11759106_at) / Fold change /veh NKD1 (11759106_at) / RFU SRD5A1 (11742802_a_at) / Fold change /veh SRD5A1 (11742802_a_at) / RFU TPSAB1 /// TPSB2 (11721975_s_at) / Fold change /veh TPSAB1 /// TPSB2 (11721975_s_at) / RFU GSTM3 (11746129_a_at) / Fold change /veh GSTM3 (11746129_a_at) / RFU IL23R (11737362_x_at) / Fold change /veh IL23R (11737362_x_at) / RFU TMEM51 (11727254_a_at) / Fold change /veh TMEM51 (11727254_a_at) / RFU PIWIL2 (11732686_x_at) / Fold change /veh PIWIL2 (11732686_x_at) / RFU ORM1 (11744905_x_at) / Fold change /veh ORM1 (11744905_x_at) / RFU CCDC152 (11743942_at) / Fold change /veh CCDC152 (11743942_at) / RFU ECM1 (11717891_a_at) / Fold change /veh ECM1 (11717891_a_at) / RFU IL23R (11748794_a_at) / Fold change /veh IL23R (11748794_a_at) / RFU TNFAIP8L3 (11732012_x_at) / Fold change /veh TNFAIP8L3 (11732012_x_at) / RFU MBOAT4 (11741988_at) / Fold change /veh MBOAT4 (11741988_at) / RFU 11764193_at / Fold change /veh 11764193_at / RFU TMEM53 (11763286_at) / Fold change /veh TMEM53 (11763286_at) / RFU MAGEB2 (11727129_at) / Fold change /veh MAGEB2 (11727129_at) / RFU TMEM200A (11744735_a_at) / Fold change /veh TMEM200A (11744735_a_at) / RFU CCDC152 (11751479_a_at) / Fold change /veh CCDC152 (11751479_a_at) / RFU FAM211A (11726209_a_at) / Fold change /veh FAM211A (11726209_a_at) / RFU RGS16 (11746705_a_at) / Fold change /veh RGS16 (11746705_a_at) / RFU VCAN (11755009_s_at) / Fold change /veh VCAN (11755009_s_at) / RFU RHOB (11743442_s_at) / Fold change /veh RHOB (11743442_s_at) / RFU RGS16 (11720943_a_at) / Fold change /veh RGS16 (11720943_a_at) / RFU RGS16 (11720944_at) / Fold change /veh RGS16 (11720944_at) / RFU, VPS4B / Fold change vs veh, VPS4B / RFU, CREB1 / Fold change vs veh, CREB1 / RFU, DNAJC13 / Fold change vs veh, DNAJC13 / RFU, GNAQ / Fold change vs veh, GNAQ / RFU, CDK5R1 / Fold change vs veh, CDK5R1 / RFU, ZRANB3 / Fold change vs veh, ZRANB3 / RFU, CUL4A / Fold change vs veh, CUL4A / RFU, CCNY / Fold change vs veh, CCNY / RFU, UFL1 / Fold change vs veh, UFL1 / RFU, COG3 / Fold change vs veh, COG3 / RFU, DIAPH2 / Fold change vs veh, DIAPH2 / RFU, SKA2 / Fold change vs veh, SKA2 / RFU, AFF3 / Fold change vs veh, AFF3 / RFU, LMF1 / Fold change vs veh, LMF1 / RFU, IPO11 / Fold change vs veh, IPO11 / RFU, DFFB / Fold change vs veh, DFFB / RFU, FOXP1 / Fold change vs veh, FOXP1 / RFU, CARD8 / Fold change vs veh, CARD8 / RFU, STRN3 / Fold change vs veh, STRN3 / RFU, ADK / Fold change vs veh, ADK / RFU, RASSF2 / Fold change vs veh, RASSF2 / RFU, WIPF1 / Fold change vs veh, WIPF1 / RFU, LARP1B / Fold change vs veh, LARP1B / RFU, RASA1 / Fold change vs veh, RASA1 / RFU, RB1 / Fold change vs veh, RB1 / RFU, PPFIA1 / Fold change vs veh, PPFIA1 / RFU, MAT2A / Fold change vs veh, MAT2A / RFU, CCT5 / Fold change vs veh, CCT5 / RFU, WDR92 / Fold change vs veh, WDR92 / RFU, CUX1 / Fold change vs veh, CUX1 / RFU, TTC7A / Fold change vs veh, TTC7A / RFU, TMEM135 / Fold change vs veh, TMEM135 / RFU, DEPTOR / Fold change vs veh, DEPTOR / RFU, CPM / Fold change vs veh, CPM / RFU, DNAJB6 / Fold change vs veh, DNAJB6 / RFU, CACNA2D3 / Fold change vs veh, CACNA2D3 / RFU, DTX4 / Fold change vs veh, DTX4 / RFU, TFCP2 / Fold change vs veh, TFCP2 / RFU, GMCL1 /// GMCL1P1 / Fold change vs veh, GMCL1 /// GMCL1P1 / RFU, AEBP2 / Fold change vs veh, AEBP2 / RFU, SNHG1 /// SNORD22 /// SNORD25 /// SNORD26 /// SNORD27 /// SNORD28 /// SNORD29 /// SNORD31 / Fold change vs veh, SNHG1 /// SNORD22 /// SNORD25 /// SNORD26 /// SNORD27 /// SNORD28 /// SNORD29 /// SNORD31 / Fold change (Aza/veh), C12orf56 (ProbeSet 11735607_a_at) / Fold change (ACY-1035/veh), C12orf56 (ProbeSet 11735607_a_at) / Fold change (Aza/veh), FGFR1OP (ProbeSet 11751329_s_at) / Fold change (ACY-1035/veh), FGFR1OP (ProbeSet 11751329_s_at) / Fold change (Aza/veh), VPS36 (ProbeSet 11739960_a_at) / Fold change (ACY-1035/veh), VPS36 (ProbeSet 11739960_a_at) / RFU SYPL1 (11715823_x_at) / Fold change /veh SYPL1 (11715823_x_at) / RFU IGFBP7 (11715501_s_at) / Fold change /veh IGFBP7 (11715501_s_at) / RFU REEP3 (11722064_at) / Fold change /veh REEP3 (11722064_at) / RFU IGLL1 (11728026_x_at) / Fold change /veh IGLL1 (11728026_x_at): dose or concentration left out as unconfirmed
Conditions: ProbeSet 11727545_at; LIST B

Question: How did the “Fold change vs veh, PANK3” value turn out when `Nc1ncn([C@@H]2O[C@H](CO)[C@@H](O)[C@H]2O)c(=O)n1` [azacitidine] was run?
Answer: Its value is 0.85.
